Experiments:
Assay in all cases: relative viability (nuclei count vs DMSO), 5 days (fraction); higher = more cells survive
PC-14 = tested on: PC-14
Outline: (§1)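 Nuclei were stained with Hoechst during a one-step fixation (final 0.05% Triton X-100, 1% formaldehyde, 1 ug/ml Hoechst) carried out 5 days after dosing, then counted on 4× images. The cells, lung cancer lines in 1536-well plates, had been dosed by pin tool the day after seeding with one drug alone or a fixed anchor-drug dose plus five library-drug doses (not always all listed) in √10 steps. Relative viability is the nuclei count in treated wells divided by that in vehicle wells, and each value is the median of duplicate plates.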

NCI-H2405 = tested on: NCI-H2405
Outline: as §1

NCI-H322M = tested on: NCI-H322M
Outline: as §1

NCI-H596 = tested on: NCI-H596
Outline: as §1

NCI-H520 = tested on: NCI-H520
Outline: as §1

EPLC-272H = tested on: EPLC-272H
Outline: as §1

NCI-H3122 = tested on: NCI-H3122
Outline: as §1

ABC-1 = tested on: ABC-1
Outline: as §1

HCC-827 = tested on: HCC-827
Outline: as §1

NCI-H358 = tested on: NCI-H358
Outline: as §1

NCI-H1792 = tested on: NCI-H1792
Outline: as §1

NCI-H647 = tested on: NCI-H647
Outline: as §1

HOP-62 = tested on: HOP-62
Outline: as §1

NCI-H1355 = tested on: NCI-H1355
Outline: as §1

NCI-H1666 = tested on: NCI-H1666
Outline: as §1

LU99A = tested on: LU99A
Outline: as §1

NCI-H838 = tested on: NCI-H838
Outline: as §1

UMC-11 = tested on: UMC-11
Outline: as §1

NCI-H23 = tested on: NCI-H23
Outline: as §1

NCI-H2170 = tested on: NCI-H2170
Outline: as §1

NCI-H727 = tested on: NCI-H727
Outline: as §1

NCI-H1975 = tested on: NCI-H1975
Outline: as §1

BEN = tested on: BEN
Outline: as §1

Cc1cnc(-c2cnc(NCCNc3ccc(C#N)cn3)nc2-c2ccc(Cl)cc2Cl)[nH]1 + Cc1nc(NC(=O)N2CCC[C@H]2C(N)=O)sc1-c1ccnc(C(C)(C)C(F)(F)F)c1 [Alpelisib] (partner 2 µM)
relative viability (PC-14; first compound 0.08 µM): 0.927
relative viability (PC-14; first compound 0.253 µM): 0.834
relative viability (PC-14; first compound 0.8 µM): 0.924
relative viability (PC-14; first compound 2.53 µM): 0.802
relative viability (NCI-H2405; first compound 0.08 µM): 1.09
relative viability (NCI-H2405; first compound 0.253 µM): 0.793
relative viability (NCI-H2405; first compound 0.8 µM): 0.811
relative viability (NCI-H2405; first compound 2.53 µM): 0.592
relative viability (NCI-H322M; first compound 0.08 µM): 0.773
relative viability (NCI-H322M; first compound 0.253 µM): 0.754
relative viability (NCI-H322M; first compound 0.8 µM): 0.709
relative viability (NCI-H322M; first compound 2.53 µM): 0.733
relative viability (NCI-H596; first compound 0.08 µM): 0.532
relative viability (NCI-H596; first compound 0.253 µM): 0.375
relative viability (NCI-H596; first compound 0.8 µM): 0.517
relative viability (NCI-H596; first compound 2.53 µM): 0.469
relative viability (NCI-H520; first compound 0.08 µM): 0.926
relative viability (NCI-H520; first compound 0.253 µM): 0.791
relative viability (NCI-H520; first compound 0.8 µM): 1.11
relative viability (NCI-H520; first compound 2.53 µM): 1.04
relative viability (EPLC-272H; first compound 0.08 µM): 0.911
relative viability (EPLC-272H; first compound 0.253 µM): 1.01
relative viability (EPLC-272H; first compound 0.8 µM): 0.728
relative viability (EPLC-272H; first compound 2.53 µM): 0.899
relative viability (NCI-H3122; first compound 0.08 µM): 0.858
relative viability (NCI-H3122; first compound 0.253 µM): 0.771
relative viability (NCI-H3122; first compound 0.8 µM): 0.725
relative viability (NCI-H3122; first compound 2.53 µM): 0.762
relative viability (ABC-1; first compound 0.08 µM): 0.961
relative viability (ABC-1; first compound 0.253 µM): 0.867
relative viability (ABC-1; first compound 0.8 µM): 1.02
relative viability (ABC-1; first compound 2.53 µM): 0.814
relative viability (HCC-827; first compound 0.08 µM): 1.08
relative viability (HCC-827; first compound 0.8 µM): 0.99
relative viability (HCC-827; first compound 2.53 µM): 0.929
relative viability (NCI-H358; first compound 0.08 µM): 0.955
relative viability (NCI-H358; first compound 0.253 µM): 0.714
relative viability (NCI-H358; first compound 0.8 µM): 0.843
relative viability (NCI-H358; first compound 2.53 µM): 0.729
relative viability (NCI-H1792; first compound 0.08 µM): 0.736
relative viability (NCI-H1792; first compound 0.253 µM): 0.639
relative viability (NCI-H1792; first compound 0.8 µM): 0.625
relative viability (NCI-H1792; first compound 2.53 µM): 0.674
relative viability (NCI-H647; first compound 0.08 µM): 1.19
relative viability (NCI-H647; first compound 0.253 µM): 1.08
relative viability (NCI-H647; first compound 0.8 µM): 1.05
relative viability (NCI-H647; first compound 2.53 µM): 1.22
relative viability (HOP-62; first compound 0.08 µM): 1
relative viability (HOP-62; first compound 0.253 µM): 0.902
relative viability (HOP-62; first compound 0.8 µM): 0.958
relative viability (HOP-62; first compound 2.53 µM): 1.14
relative viability (NCI-H1355; first compound 0.08 µM): 0.801
relative viability (NCI-H1355; first compound 0.253 µM): 0.752
relative viability (NCI-H1355; first compound 0.8 µM): 0.786
relative viability (NCI-H1355; first compound 2.53 µM): 0.783
relative viability (NCI-H1666; first compound 0.08 µM): 1
relative viability (NCI-H1666; first compound 0.253 µM): 0.919
relative viability (NCI-H1666; first compound 0.8 µM): 0.831
relative viability (NCI-H1666; first compound 2.53 µM): 1.07
relative viability (LU99A; first compound 0.08 µM): 0.606
relative viability (LU99A; first compound 0.253 µM): 0.548
relative viability (LU99A; first compound 0.8 µM): 0.557
relative viability (LU99A; first compound 2.53 µM): 0.516
relative viability (NCI-H838; first compound 0.08 µM): 1.06
relative viability (NCI-H838; first compound 0.253 µM): 0.951
relative viability (NCI-H838; first compound 0.8 µM): 1.18
relative viability (NCI-H838; first compound 2.53 µM): 1.41
relative viability (UMC-11; first compound 0.08 µM): 0.844
relative viability (UMC-11; first compound 0.253 µM): 0.903
relative viability (UMC-11; first compound 0.8 µM): 1.02
relative viability (UMC-11; first compound 2.53 µM): 0.908
relative viability (NCI-H23; first compound 0.08 µM): 0.819
relative viability (NCI-H23; first compound 0.253 µM): 0.591
relative viability (NCI-H23; first compound 0.8 µM): 0.818
relative viability (NCI-H23; first compound 2.53 µM): 0.72
relative viability (NCI-H2170; first compound 0.08 µM): 0.825
relative viability (NCI-H2170; first compound 0.253 µM): 0.702
relative viability (NCI-H2170; first compound 0.8 µM): 0.757
relative viability (NCI-H2170; first compound 2.53 µM): 0.778
relative viability (NCI-H727; first compound 0.08 µM): 0.505
relative viability (NCI-H727; first compound 0.253 µM): 0.593
relative viability (NCI-H727; first compound 0.8 µM): 0.566
relative viability (NCI-H727; first compound 2.53 µM): 0.482
relative viability (NCI-H1975; first compound 0.08 µM): 0.667
relative viability (NCI-H1975; first compound 0.253 µM): 0.571
relative viability (NCI-H1975; first compound 0.8 µM): 0.561
relative viability (NCI-H1975; first compound 2.53 µM): 0.52
relative viability (BEN; first compound 0.08 µM): 1.22
relative viability (BEN; first compound 0.253 µM): 0.973
relative viability (BEN; first compound 0.8 µM): 0.964
relative viability (BEN; first compound 2.53 µM): 1.04
